Source: patent US10618900B2, “5-aromatic alkynyl substituted benzamide compound and preparation method, pharmaceutical composition, and use thereof” (SHANGHAI INSTITUTE OF MATERIA MEDICA, CHINESE ACADEMY OF …, priority 2015, dated 2020)

Tests used:
mGluR5 = mGluR5 (Homo sapiens (Human), UniProt P41594); test: In vitro activity test for mGluR5, HDB Fluo-8 calcium fluorescence detection (FLIPR); type: cell-based; settings: HEK293/mGluR5 cell line
Text: Experimental instrument: FLIPR Tetra real-time fluorescence imaging analysis system
Experimental method: HDB Fluo-8 calcium fluorescence detection method
Experimental principle: HDB Fluo-8 calcium ion fluorescence detection method is a fast, simple and reliable fluorescence detection method of intracellular calcium concentration changes. The Fluo 8-AM fluorescent dye is an […] derivative of Fluo 8 which can easily penetrate the cell membrane into the cell by culture. The fluorescent dye into the cell will be hydrolyzed by intracellular esterase, the resulting Fluo 8 cannot easily pass through the lipid bimolecular membrane as a polar molecule, and will retain in the cell, and combine with calcium (Ca^2+) to produce fluoresces.
Cells expressing GPCR receptor protein (mGluR5) were first calibrated with a calcium ion sensitive fluorescent probe and then stimulated with the compound. After stimulation, the activation of the receptor lead to the calcium ion mobilization, and the fluorescent probe captures the calcium ion to induce the fluorescence signal. The signal can be read by a fluorescent plate reader. The fluorescent plate reader contains a sampling head for compound addition, thus enabling the change of the fluorescence value of the compound be read in real time. […]

mGluR1 = mGluR1 (Homo sapiens (Human), UniProt Q13255); test: mGluR5/1 selectivity test, HEK293/mGluR1 cell line, Fluo-8 calcium; type: cell-based; settings: for IC50: HEK293/mGluR1 cell line; for mGluR5/mGluR1: selectivity ratio of IC50 values
mGluR1, sequence (Q13255 19-1194): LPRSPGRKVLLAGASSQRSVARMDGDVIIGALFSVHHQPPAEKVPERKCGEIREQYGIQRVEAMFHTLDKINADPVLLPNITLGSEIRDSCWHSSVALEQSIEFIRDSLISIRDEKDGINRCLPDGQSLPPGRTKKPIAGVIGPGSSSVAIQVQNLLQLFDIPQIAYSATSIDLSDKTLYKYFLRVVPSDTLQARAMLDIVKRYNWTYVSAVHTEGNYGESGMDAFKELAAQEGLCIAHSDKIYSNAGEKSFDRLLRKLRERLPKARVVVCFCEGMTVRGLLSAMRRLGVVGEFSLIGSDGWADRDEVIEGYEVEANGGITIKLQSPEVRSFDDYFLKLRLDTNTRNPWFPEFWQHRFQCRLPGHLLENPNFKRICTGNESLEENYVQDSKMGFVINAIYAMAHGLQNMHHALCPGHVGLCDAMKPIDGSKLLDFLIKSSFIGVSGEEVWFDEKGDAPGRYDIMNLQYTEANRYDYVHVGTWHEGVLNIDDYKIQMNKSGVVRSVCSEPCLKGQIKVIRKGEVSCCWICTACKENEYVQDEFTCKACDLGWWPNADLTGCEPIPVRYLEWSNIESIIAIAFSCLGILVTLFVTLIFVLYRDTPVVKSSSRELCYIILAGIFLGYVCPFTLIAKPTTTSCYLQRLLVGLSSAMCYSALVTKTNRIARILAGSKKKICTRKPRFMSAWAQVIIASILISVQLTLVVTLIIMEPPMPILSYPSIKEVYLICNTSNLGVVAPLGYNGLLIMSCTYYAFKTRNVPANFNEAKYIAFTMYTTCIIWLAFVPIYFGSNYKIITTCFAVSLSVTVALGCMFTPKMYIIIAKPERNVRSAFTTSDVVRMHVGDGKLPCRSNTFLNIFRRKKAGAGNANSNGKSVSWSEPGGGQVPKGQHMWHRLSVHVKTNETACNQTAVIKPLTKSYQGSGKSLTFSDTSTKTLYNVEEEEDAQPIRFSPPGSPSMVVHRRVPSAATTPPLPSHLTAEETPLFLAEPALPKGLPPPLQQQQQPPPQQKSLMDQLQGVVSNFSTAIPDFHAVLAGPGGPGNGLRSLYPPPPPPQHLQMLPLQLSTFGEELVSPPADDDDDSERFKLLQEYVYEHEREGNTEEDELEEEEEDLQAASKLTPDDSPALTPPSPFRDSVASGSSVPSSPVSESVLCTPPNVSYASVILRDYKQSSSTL
Text: Experimental material: HEK293/mGluR5 cell line, HEK293/mGluR1 cell line, Fluo-8 calcium ion fluorescent dye, positive control JNJ16259685

mice [1] = test: Mouse tail suspension experiment; type: in vivo; settings: positive control, FIG. 1
Text: Experimental principle: Tail Suspension Test (TST) is a classic method which can quickly evaluate the efficacy of antidepressant drugs, excitement drugs, and sedative drugs. The principle is to use the status that the mouse give up struggle and enter the unique depression status after the tail was suspended and the attempt to escape was failed.
Experimental method: 20-24 g male mice were selected and the site at 2 cm part from the end of the tail was attached to a horizontal stick, so that the animal entered inverted state, and it's head was about 5 cm from the table, and boards were hung on both sides to separate the animal's sight. The immobility time of the administration group and the control group within 6 min were compared.

mice [2] = test: Head twitches test (5-HTP induced); type: in vivo; settings: positive control, FIG. 2
Text: Experimental principle: Model Head Thrust Test (HTT) is first raised by Corne et al. in 1963, head twitches syndrome caused by 5-HT receptor excitement may be mediated through the 5-HT2 receptor. The head twitches behavior induced by 5-HTP in mice is more sensitive to antidepressants with different action mechanisms, such as citalopram, fluvoxamine and other 5-HT retake inhibitors, desipramine, maprotiline, nomifensine and other NA retake inhibitors and imipramine acting on both 5-HT and NA system.
Experimental method: 20-24 g male mice were selected. 3 h before the test, 100 mg/kg pargyline was intraperitoneal injected and then intraperitoneal injected with test drugs or saline. 5-HTP (5 mg/kg, ip) was injected 30 min later. After 10 min, the observation was started and the number of mice head twitches in 6 min was recorded. The numbers of the head twitches of experimental group and the saline control group were compared.

ICR mice = test: Mouse forced swimming experiment; type: in vivo; settings: positive control, 10 mg/kg intraperitoneal, later 4 min of 6 min
Method: Experimental principle: The principle of Mouse Forced Swimming Test (FST) is to allow the mouse to swim in a limited space from which it can not escape, thus inducing animal to non-movement state which reflects the animal's desperate behavior.
Experimental animals: ICR mice, 20-28 g, both male and female
Sample treatment: The test compounds were ground with 1% CMC (sodium carboxymethyl cellulose) aqueous solution to prepare a homogeneous solution. In vivo dose was 5 mg/kg, 10 mg/kg and 20 mg/kg, the compound was oral administered at 0.1 ml/10 g volume/body weight. Positive control drugs (amitriptyline and fluoxetine) were dissolved with 0.9% saline, in vivo dose was 10 mg/kg, administered by intraperitoneal injection at 0.1 ml/10 g volume/body weight. (Note: the mice were fasted for 8 h and drinked water ad libitum before the compound was given.)
Experimental Methods: mice were grouped randomly. […] On the second day of the test, the mice were orally administered the compound. After 1 hour (0.5 hours after intraperitoneal injection), the mice were then put in water to record the immobility time in the later 4 min of 6 min.

mGluR5, sequence (P41594 21-1212): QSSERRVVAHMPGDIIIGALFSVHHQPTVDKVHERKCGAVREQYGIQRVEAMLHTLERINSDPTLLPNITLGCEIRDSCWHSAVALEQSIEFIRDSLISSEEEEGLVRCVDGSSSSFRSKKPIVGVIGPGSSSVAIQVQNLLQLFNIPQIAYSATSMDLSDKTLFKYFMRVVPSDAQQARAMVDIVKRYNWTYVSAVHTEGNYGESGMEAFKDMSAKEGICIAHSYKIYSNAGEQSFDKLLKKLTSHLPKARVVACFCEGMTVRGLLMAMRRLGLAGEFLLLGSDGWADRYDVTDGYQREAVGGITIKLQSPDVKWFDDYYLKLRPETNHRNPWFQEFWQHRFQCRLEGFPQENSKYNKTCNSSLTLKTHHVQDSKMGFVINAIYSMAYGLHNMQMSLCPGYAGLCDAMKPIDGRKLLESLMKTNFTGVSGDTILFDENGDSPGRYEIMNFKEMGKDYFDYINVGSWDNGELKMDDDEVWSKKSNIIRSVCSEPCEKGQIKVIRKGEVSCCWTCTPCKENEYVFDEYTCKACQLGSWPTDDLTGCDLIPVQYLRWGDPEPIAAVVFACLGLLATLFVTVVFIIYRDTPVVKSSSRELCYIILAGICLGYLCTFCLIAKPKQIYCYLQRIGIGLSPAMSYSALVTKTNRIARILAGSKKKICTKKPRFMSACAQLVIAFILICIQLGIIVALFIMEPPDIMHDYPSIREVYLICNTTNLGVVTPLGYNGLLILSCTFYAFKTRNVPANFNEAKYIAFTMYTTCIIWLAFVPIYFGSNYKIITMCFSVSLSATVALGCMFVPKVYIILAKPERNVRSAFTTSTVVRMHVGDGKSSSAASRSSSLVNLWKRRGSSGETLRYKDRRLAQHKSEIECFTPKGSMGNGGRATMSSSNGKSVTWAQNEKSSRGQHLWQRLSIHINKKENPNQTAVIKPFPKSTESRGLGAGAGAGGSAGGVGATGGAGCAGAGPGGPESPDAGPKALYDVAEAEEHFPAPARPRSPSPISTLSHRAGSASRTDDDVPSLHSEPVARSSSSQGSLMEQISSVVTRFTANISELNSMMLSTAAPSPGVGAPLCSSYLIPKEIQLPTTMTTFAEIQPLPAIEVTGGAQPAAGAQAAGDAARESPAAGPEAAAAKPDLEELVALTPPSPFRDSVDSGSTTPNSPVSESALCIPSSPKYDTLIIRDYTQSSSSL

For Cc1nc(C#Cc2cccc(C(=O)Nc3cccc(F)c3)c2)cs1 [ZD017, N-(3-fluorophenyl)-3-((2-methylthiazol-4-yl)ethynyl)benzamide], the IC50 (mGluR5) was 133 nM.
For O=C(Nc1ccc(F)cc1)c1cc(C#Cc2ccncc2)ccc1F [ZD039, 2-fluoro-N-(4-fluorophenyl)-5-(pyridin-4-ethynyl)benzamide], the IC50 (mGluR5) was 382 nM.
In the case of Cc1nc(C#Cc2ccc(F)c(C(=O)Nc3ccc(F)cc3)c2)cs1 [ZD004, 2-fluoro-N-(4-fluorophenyl)-5-((2-methyl-thiZaol-4-yl)ethynyl)benzamide], the IC50 (mGluR1) is reported as > 100000 nM, the mGluR5/mGluR1 (mGluR1) is reported as >9091 and the IC50 (mGluR5) is reported as 11 nM.
With Cc1nc(C#Cc2cccc(C(=O)Nc3ccc(C#N)cc3)c2)cs1 [ZD010, N-(4-cyanophenyl)-3-((2-methylthiazol-4-yl)ethynyl)benzamide] the IC50 (mGluR5) was 86.6 nM.
In the case of O=C(c1cc(C#Cc2ccccn2)ccc1F)N1CCc2ccccc2C1 [ZD046, (3,4-dihydro-isoquinolin-2(1H)-yl)(2-fluoro-5-(pyridin-2-ylethynyl)phenyl) methanone], the IC50 (mGluR1) is reported as > 100000 nM, the mGluR5/mGluR1 (mGluR1) is reported as >6601 and the IC50 (mGluR5) is reported as 15.2 nM.
For O=C(Nc1ccc(F)cc1)c1cc(C#Cc2ccccn2)ccc1F [ZD001, 2-fluoro-5-(pyridin-2-ethynyl)-N-(4-fluorophenyl)benzamide], the IC50 (mGluR1) was > 100000 nM, the mGluR5/mGluR1 (mGluR1) was >7194 and the IC50 (mGluR5) was 13.9 nM.
Cc1nc(C#Cc2ccc(Cl)c(C(=O)Nc3ccc(F)cc3)c2)cs1 [ZD037, 2-chloro-N-(4-fluorophenyl)-5-((2-methyl-thiazol-4-yl)ethynyl)benzamide] was tested, and the IC50 (mGluR1) was > 100000 nM, the mGluR5/mGluR1 (mGluR1) was >13676 and the IC50 (mGluR5) was 7.31 nM.
With Cc1nc(C#Cc2cccc(C(=O)Nc3ccccc3)c2)cs1 [ZD014] the IC50 (mGluR1) was > 100000 nM, the mGluR5/mGluR1 (mGluR1) was >6757 and the IC50 (mGluR5) was 14.8 nM.
Work on Cc1nc(C#Cc2ccc(F)c(C(=O)Nc3ccc(C#N)cc3)c2)cs1 [ZD045, N-(4-cyanophenyl)2-fluoro-5-((2-methyl-thiazol-4-yl)ethynyl)benzamide] yielded an IC50 (mGluR5) of 53.5 nM.
In the case of CNCCC(Oc1ccc(C(F)(F)F)cc1)c1ccccc1 (stereo not shown) [Fluoxetine, fluoxetine, reference compound], the “immobility time in the mouse tail suspension test” value (mice [1]) is reported as “significantly improve”, the “number of head twitches” value (mice [2]) is reported as “significantly improve” and the “immobility time (%) Mean ± SEM” value (ICR mice) is reported as 84.79 ± 12.73%.
Work on Cc1ccc(C#Cc2ccccn2)cc1C(=O)Nc1ccc(F)cc1 [ZD040, N-(4-fluorophenyl)-2-methyl-5-(pyridin-2-ethynyl)benzamide] yielded an IC50 (mGluR5) of 104 nM.
For Cc1nc(C#Cc2cccc(C(=O)Nc3cccc(C#N)c3)c2)cs1 [ZD019, N-(3-cyanophenyl)-3-((2-methylthiazol-4-yl)ethynyl)benzamide], the IC50 (mGluR5) was 134 nM.
COC1CCC(C(=O)c2ccc3nc4c(cc3c2)CCCO4)CC1 (stereo not shown) [JNJ16259685, reference compound] showed an IC50 (mGluR1; positive control) of 91.2 nM.
For O=C(Nc1cccnc1)c1cc(C#Cc2ccccn2)ccc1F [ZD042, 2-fluoro-5-(pyridin-2-ethynyl)-N-(pyridin-3-yl)benzamide], the IC50 (mGluR1) was > 100000 nM, the mGluR5/mGluR1 (mGluR1) was >5155 and the IC50 (mGluR5) was 19.4 nM.
CN(C)CCC=C1c2ccccc2CCc2ccccc21 [amitriptyline, reference compound] was tested, and the “immobility time (%) Mean ± SEM” value (ICR mice) was “significantly improve” and the “immobility time (%) Mean ± SEM” value (ICR mice; listed as CCAmitriptyline) was 15.34 ± 5.96 %.
In the case of Cc1nc(C#Cc2cccc(C(=O)N3CCc4ccccc4C3C)c2)cs1 (stereo not shown) [ZD011], the IC50 (mGluR5) is reported as 32.6 nM.
With O=C(Nc1ccc(F)cc1)c1cc(C#Cc2ccccn2)ccc1Cl [ZD036, 2-chloro-N-(4-fluorophenyl)-5-(pyridin-2-ethynyl)benzamide] the IC50 (mGluR1) was > 100000 nM, the mGluR5/mGluR1 (mGluR1) was >4929 and the IC50 (mGluR5) was 20.3 nM.
In the case of N#Cc1ccc(NC(=O)c2cc(C#Cc3ccccn3)ccc2F)cc1 [ZD044, N-(4-cyanophenyl)-2-fluoro-5-(pyridin-2-ethynyl)benzamide], the IC50 (mGluR5) is reported as 86.5 nM.
In the case of Cc1nc(C#Cc2ccc(F)c(C(=O)N3CCc4ccccc4C3)c2)cs1 [ZD047, (3,4-dihydro-isoquinolin-2(1H)-yl)(2-fluoro-5-((2-methyl-thiazol-4-yl)ethynyl)phenyl)methanone], the IC50 (mGluR1) is reported as > 100000 nM, the mGluR5/mGluR1 (mGluR1) is reported as >15044 and the IC50 (mGluR5) is reported as 6.65 nM.
For Cc1nc(C#Cc2ccc(C)c(C(=O)Nc3ccc(F)cc3)c2)cs1 [ZD041, N-(4-fluorophenyl)-2-methyl-5-((2-methyl-thiazol-4-yl)ethynyl)benzamide], the IC50 (mGluR5) was 108 nM.
Cc1nc(C#Cc2ccc(F)c(C(=O)N3CCc4ccccc4C3C)c2)cs1 (stereo not shown) [ZD049, (2-fluoro-5-((2-methyl-thiazol-4-yl)ethynyl)phenyl)(1-methyl-3,4-dihydro-isoquinolin-2(1H)-yl)methanone] was tested, and the IC50 (mGluR1) was > 100000 nM, the mGluR5/mGluR1 (mGluR1) was >2632 and the IC50 (mGluR5) was 38 nM.
Work on CC1c2ccccc2CCN1C(=O)c1cc(C#Cc2ccccn2)ccc1F (stereo not shown) [ZD048, (2-fluoro-5-(pyridin-2-ylethynyl)phenyl) (1-methyl-3,4-dihydro-isoquinolin-2(1H)-yl)methanone] yielded an IC50 (mGluR5) of 71.3 nM.
